{
  "source": "paper PMC3958483",
  "about": "“Fine Specificity and Molecular Competition in SLAM Family Receptor Signalling” (PLoS ONE, 2014)",
  "key": {"SHIP SH2 from SHIP-1": {"molecular_target": "T1, SHIP SH2 from SHIP-1 (Homo sapiens, UniProt Q92835)", "T1 construct": "the single SH2 domain from SHIP-1; His-tag; made in house; host or cells: E. coli BL21(DE3)pLysS", "T1 sequence (Q92835 5-101 limits assumed)": "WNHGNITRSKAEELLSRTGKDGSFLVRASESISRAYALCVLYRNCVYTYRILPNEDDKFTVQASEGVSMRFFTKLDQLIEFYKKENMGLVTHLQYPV", "assay": "SPR binding of SHIP SH2 domain to immobilised phosphopeptides", "conditions": "37°C, equilibrium binding analysis", "description": "(§1) Biotinylated EAT-2 was produced by expression of full length human EAT-2 with a C-terminal BirA tag ([…]) in the E coli expression vector pTrcHisA. Constructs encoding the 6xHis-tagged tandem SH2 domains plus the SH3 domains of PLCγ1 (Swiss-Prot: P19174, aa 536–863) and PLCγ2 (Swiss-Prot: P16885, aa 519–838) were generated in pTrcHisA (5′ joining sequence with BglII site underlined: gag atc tcc translates as EIS). The molecular weight (MW) and theoretical extinction coefficients (EC) of recombinant PLCγ1 and PLCγ2 SH2-SH2-SH3 domains were PLCγ1; MW = 42531, EC = 63,830 M^−1 cm^−1 and PLCγ2; MW = 42415, EC = 67,270 M^−1 cm^−1.\nMeasurements of protein-protein affinity were performed on BIAcore 3000 and T200 systems using CM5 or biotin capture chips (GE Healthcare Ltd, UK). Streptavidin was coupled to CM5 sensor chips using standard NHS/EDC chemical linkage, followed by immobilization of biotinylated peptides. The levels of peptide immobilized were approximately 25 and 50 response units respectively of single and tandem tyrosine motifs to facilitate saturating binding and limitation of “bridging” [22], [45]. […] Equilibrium binding coefficients and dissociation and association rates were calculated using BIAevaluation and/or GraphPad Prism 5.4 software. […]"}, "[1]": {"assay": "Pull-down with phosphorylated CD244 ITSM1 from NK cell lysates, LC-MS/MS", "type": "binding", "conditions": "human NK cell lysates; compared with control phosphopeptide SHIP-1 Y865", "procedure": "For pull-down of associated proteins, streptavidin Sepharose (GE Healthcare) was pre-coated with saturating amounts of peptide or EAT-2. NK92 cells (4×10^8) were treated with 500 μM pervanadate for 15 minutes, then lysed in PBS, 1% Triton X-100, 1 mM sodium orthovanadate in the presence of mammalian protease inhibitor solution (Sigma). Lysates were pre-cleared by centrifugation, followed by incubation with streptavidin Sepharose. Peptide or EAT-2-coated streptavidin beads were incubated with NK92 lysates for 2 hours at 4°C with rotation. Beads were washed once with 15 ml ice cold PBS/1% (v/v) Triton X-100. Bound protein was eluted using 100 mM glycine-HCl pH 2.5.\nProtein samples were prepared for mass spectrometry as described previously. Briefly, eluted proteins were spun onto the membranes of Vivacon 500 filters (10,000 MWCO – Sartorius). Membranes were washed once with PBS then proteins were denatured with 8 M urea, reduced with 10 mM DTT in 25 mM ammonium bicarbonate buffer, followed by alkylation with 50 mM iodoacetamide. Proteins were then digested overnight with trypsin. Tryptic peptides were then eluted from the membrane and analyzed on an Ultimate 3000 HPLC-coupled Orbitrap XL mass spectrometer. Proteins were identified by liquid chromatography-coupled tandem mass-spectrometry (LC-MS/MS). Raw data files were converted to mzXML format using ReADW (v. 4.2.1) and submitted to the Central Proteomics Facilities Pipeline for database comparison and peptide identification. Searching against the International Protein Index (IPI) human protein sequence database for protein identification, protein and peptide hits were statistically validated by applying a 1% false discovery rate (FDR) by searching against a concatenated target/decoy database. Datasets were searched with variable peptide modifications for phosphotyrosine, phosphoserine, phosphothreonine, oxidation of methionine and deamination.\nProtein identification data were exported into ProteinCenter (v3.8.3013 – Thermo Fisher) for filtering and annotation. Results were filtered to remove any proteins with less than 3 unique peptides, less than 10 percent sequence coverage, or median protein probability scores less than 0.5. To establish sample specificity, any protein with at least 10-fold greater sequence coverage in one sample compared with the other was considered to be specific for that sample.\nSimilarly, differences in specificity of inhibitory SH2 domain containing proteins for ITSMs are relevant to understanding mechanisms of inhibition by ITSMs. We focused on CD244 ITSMs to establish general paradigms."}, "PLCγ1 (SH2-SH2-SH3)": {"molecular_target": "T2, PLCγ1 (SH2-SH2-SH3) (Homo sapiens, UniProt P19174)", "T2 construct": "PLCγ1 (Swiss-Prot: P19174, aa 536–863); 6xHis (N); made in house; host or cells: E. coli BL21(DE3)pLysS", "T2 sequence (P19174 536-863)": "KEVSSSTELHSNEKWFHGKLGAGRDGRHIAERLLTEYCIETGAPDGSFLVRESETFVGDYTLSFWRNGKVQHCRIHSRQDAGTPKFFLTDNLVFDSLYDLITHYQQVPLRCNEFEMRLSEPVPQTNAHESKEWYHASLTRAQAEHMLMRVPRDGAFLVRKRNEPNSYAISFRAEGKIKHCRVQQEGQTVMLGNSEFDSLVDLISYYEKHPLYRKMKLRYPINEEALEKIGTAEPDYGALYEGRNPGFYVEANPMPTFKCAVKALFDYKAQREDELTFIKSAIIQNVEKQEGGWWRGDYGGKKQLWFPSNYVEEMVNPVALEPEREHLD", "assay": "SPR binding of PLCγ1 SH2-SH2-SH3 to immobilised phosphopeptides", "conditions": "37°C, ten two-fold dilutions, top concentration 1 μM, one-site specific binding model, curve shown in Figure 7B", "description": "as §1\n(§2) Soluble recombinant proteins were produced in BL21(DE3)pLysS E. coli (Calbiochem) at 37°C in 2TY medium and induced at OD 600 = 0.6 with 0.1 mM IPTG for 4 h or in 2XYT auto-induction (Formedium) medium overnight. Bacterial pellets were resuspended in ∼0.1 volume 10 mM HEPES pH7.4, 150 mM NaCl and used immediately or stored at −20°C in 10 ml aliquots. His-tag mediated protein purification was performed on a Co^2+ or Ni^2+ column by standard protocols. […]\n(§3) Measurements of protein-protein affinity were performed on BIAcore 3000 and T200 systems using CM5 or biotin capture chips (GE Healthcare Ltd, UK). […] Equilibrium binding coefficients and dissociation and association rates were calculated using BIAevaluation and/or GraphPad Prism 5.4 software. […]"}, "PLCγ2 (SH2-SH2-SH3)": {"molecular_target": "T3, PLCγ2 (SH2-SH2-SH3) (Homo sapiens, UniProt P16885)", "T3 construct": "PLCγ2 (Swiss-Prot: P16885, aa 519–838); 6xHis (N); made in house; host or cells: E. coli BL21(DE3)pLysS", "T3 sequence (P16885 519-838)": "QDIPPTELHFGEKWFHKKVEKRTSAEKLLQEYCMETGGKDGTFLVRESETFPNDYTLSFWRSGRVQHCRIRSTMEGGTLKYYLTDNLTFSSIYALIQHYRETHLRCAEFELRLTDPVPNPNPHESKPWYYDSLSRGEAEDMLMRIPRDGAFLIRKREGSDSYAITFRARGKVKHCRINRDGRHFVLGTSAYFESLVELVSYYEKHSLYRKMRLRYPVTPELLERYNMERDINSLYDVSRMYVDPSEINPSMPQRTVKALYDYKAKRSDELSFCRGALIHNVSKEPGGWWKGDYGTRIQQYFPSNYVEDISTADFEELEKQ", "assay": "SPR binding of PLCγ2 SH2-SH2-SH3 to immobilised phosphopeptides", "conditions": "KD (Figure 7B), 37°C, ten two-fold dilutions, top concentration 1 μM, one-site specific binding model, curve shown in Figure 7B", "description": "as §1, §2, §3"}, "EAT-2": {"molecular_target": "T4, EAT-2 (Homo sapiens, UniProt O14796)", "T4 construct": "His-tag; made in house; host or cells: E. coli BL21(DE3)pLysS", "T4 sequence (O14796 1-132)": "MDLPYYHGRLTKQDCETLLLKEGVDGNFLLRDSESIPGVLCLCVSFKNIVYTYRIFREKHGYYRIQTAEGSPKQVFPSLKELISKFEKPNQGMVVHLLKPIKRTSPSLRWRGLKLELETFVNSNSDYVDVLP", "assay": "SPR binding of EAT-2 to immobilised phosphopeptides", "conditions": "37°C, ten two-fold dilutions, top concentration 0.3 μM, one-site specific binding model, curve shown in Figure 2B, read-out: KD (Figure 2B)", "description": "as §1\nSoluble recombinant proteins were produced in BL21(DE3)pLysS E. coli (Calbiochem) at 37°C in 2TY medium and induced at OD 600 = 0.6 with 0.1 mM IPTG for 4 h or in 2XYT auto-induction (Formedium) medium overnight. Bacterial pellets were resuspended in ∼0.1 volume 10 mM HEPES pH7.4, 150 mM NaCl and used immediately or stored at −20°C in 10 ml aliquots. His-tag mediated protein purification was performed on a Co^2+ or Ni^2+ column by standard protocols. […] Where applicable, proteins were stored frozen in 10–25 mM HEPES pH 7.4, 200–300 mM NaCl (pH 7.4).All proteins were purified by size exclusion chromatography immediately prior to SPR analysis.\nMeasurements of protein-protein affinity were performed on BIAcore 3000 and T200 systems using CM5 or biotin capture chips (GE Healthcare Ltd, UK). Streptavidin was coupled to CM5 sensor chips using standard NHS/EDC chemical linkage, followed by immobilization of biotinylated peptides. The levels of peptide immobilized were approximately 25 and 50 response units respectively of single and tandem tyrosine motifs to facilitate saturating binding and limitation of “bridging” [22], [45]. Purified recombinant proteins were passed over the immobilized peptides at a range of concentrations in HBS-EP buffer, 10 mM HEPES pH 7.4, 150 mM NaCl, 3.4 mM EDTA, 0.005% surfactant, P20. Equilibrium binding coefficients and dissociation and association rates were calculated using BIAevaluation and/or GraphPad Prism 5.4 software.\nThe specificities of their SH2 domains overlap, introducing the concept of competition between them for ITSMs in cells where they are co-expressed, including NK cells."}},
  "note": "Non-standard residues stand in square brackets, D forms with d. Residues, ends and D or L forms follow the SMILES beside them. *: point of attachment. Biotin = O=C1N[C@H]2[C@H](CS[C@H]2CCCCC(=O)*)N1; pY = N[C@@H](Cc1ccc(OP(=O)(O)O)cc1)C(=O)O",
  "data": [
    {"compound": "CC[C@H](C)[C@H](NC(=O)[C@H](CCSC)NC(=O)[C@H](CO)NC(=O)[C@H](Cc1ccc(OP(=O)(O)O)cc1)NC(=O)[C@@H](NC(=O)[C@@H](NC(=O)[C@H](CO)NC(=O)CNC(=O)CNC(=O)CCCC[C@@H]1SC[C@@H]2NC(=O)N[C@@H]21)[C@@H](C)O)[C@@H](C)CC)C(=O)N[C@@H](CCC(N)=O)C(=O)N[C@@H](CO)C(=O)O", "note": "[CD244 ITSM2]", "values": [
      {"measurement": "binding of SHIP SH2 domain", "setting": "SHIP SH2 from SHIP-1", "result": "preference of SHIP SH2 domain"}
    ]},
    {"compound": "SHP-1: SH2 domain containing phosphatase", "values": [
      {"measurement": "pull-down by CD244 ITSM1", "setting": "[1]", "result": "pulled down by the ITSM peptide"}
    ]},
    {"compound": "CC(C)C[C@H](NC(=O)[C@@H](NC(=O)[C@H](CC(=O)O)NC(=O)[C@@H](NC(=O)[C@H](Cc1ccc(OP(=O)(O)O)cc1)NC(=O)[C@H](CC(=O)O)NC(=O)[C@H](CO)NC(=O)[C@H](CC(N)=O)NC(=O)[C@H](CO)NC(=O)[C@H](CC(N)=O)NC(=O)CCCC[C@@H]1SC[C@@H]2NC(=O)N[C@@H]21)C(C)C)C(C)C)C(=O)N1CCC[C@H]1C(=O)O", "note": "[EAT-2 Y127] (Biotin-NSNSD[pY]VDVLP-OH)", "values": [
      {"measurement": "Kd", "setting": "PLCγ1 (SH2-SH2-SH3)", "result": 18, "unit": "nM"},
      {"measurement": "Kd", "setting": "PLCγ2 (SH2-SH2-SH3)", "result": 87, "unit": "nM"}
    ]},
    {"compound": "SHP-2: SH2 domain containing tyrosine phosphatase", "values": [
      {"measurement": "pull-down by CD244 ITSM1", "setting": "[1]", "result": "pulled down by the ITSM peptide"}
    ]},
    {"compound": "CC[C@H](C)[C@H](NC(=O)[C@H](CCC(=O)O)NC(=O)[C@@H](NC(=O)[C@@H](NC(=O)[C@H](CO)NC(=O)[C@H](Cc1ccc(OP(=O)(O)O)cc1)NC(=O)[C@@H](NC(=O)[C@@H](NC(=O)[C@H](CC(N)=O)NC(=O)[C@H](C)NC(=O)[C@@H]1CCCN1C(=O)CCCC[C@@H]1SC[C@@H]2NC(=O)N[C@@H]21)[C@@H](C)O)C(C)C)[C@@H](C)O)C(C)C)C(=O)O", "note": "[CRACC ITSM2] (Biotin-PANTV[pY]STVEI-OH)", "values": [
      {"measurement": "Kd", "setting": "EAT-2", "result": 1, "unit": "nM"}
    ]}
  ]
}
